Experimental data taken from ChEMBL document CHEMBL4732026, “Benzimidazole-1,2,3-triazole hybrid molecules: synthesis and study of their interaction with G-quadruplex DNA” (RSC Med Chem, 2021).
pIC50, pKd: −log10 of the molar value. The source made the active and inactive calls. The calls are words filed in the database; no cut-off is given here.

How the values were obtained:
CHO-K1 [1] = assay: Induction of apoptosis in CHO-K1 cells assessed as early apoptic cells at 65 uM after 48 hrs by Annexin V based flow cytometric analysis (reference value: 4.58%); format: cell-based, Cricetulus griseus; settings: chinese hamster, cho-k1, 48 h
PC-3 [2] = assay: Induction of apoptosis in human PC-3 cells assessed as viable cells at 50 uM after 48 hrs by Annexin V based flow cytometric analysis (reference value: 89.57%); format: functional; settings: read-out: Activity
dsDNA [3] = assay: Binding affinity to double strand DNA (unknown origin) assessed as increase in intensity of positive and negative peaks at 10 to 40 uM by circular dichroism spectra; format: nucleic-acid assay; settings: dose 10-40 µM
Quadruplex DNA [4] = assay: Binding affinity to c-Myc G-quadruplex DNA (unknown origin) assessed as hyperchromicity at 8.5 uM incubated for 5 mins by UV- vis spectrophotometric analysis; format: nucleic-acid assay
CHO-K1 [5] = assay: Cytotoxicity against […] cells assessed as reduction in cell viability measured after 72 hrs by MTT assay; format: cell-based; settings: Cricetulus griseus, CHO-K1, 72 h
PC-3 [6] = assay: Induction of apoptosis in human PC-3 cells assessed as necrotic cells at 55 uM after 48 hrs by Annexin V based flow cytometric analysis (reference value: 0.79%); format: functional
PC-3 [7] = assay: Induction of cell cycle arrest in human PC3 cells assessed as accumulation at G2/M phase at 50 uM after 48 hrs by propidium iodide staining based flow cytometry (reference value: 1.4%); format: functional
Quadruplex DNA [8] = assay: Binding affinity to c-Myc G-quadruplex DNA (unknown origin) assessed as increase in viscosity at 15 uM by EtBr/Hoechst 33342 method; format: nucleic-acid assay
Quadruplex DNA [9] = assay: Binding affinity to Tel Q G-quadruplex DNA (unknown origin) assessed as dissociation constant incubated for 5 mins by UV- vis spectrophotometric analysis; format: nucleic-acid assay
dsDNA [10] = assay: Binding affinity to double strand DNA (unknown origin) assessed as dissociation constant incubated for 5 mins by UV- vis spectrophotometric analysis; format: nucleic-acid assay
dsDNA [11] = assay: Binding affinity to double strand DNA (unknown origin) assessed as hypsochromic shift at 8.5 uM incubated for 5 mins by UV- vis spectrophotometric analysis; format: nucleic-acid assay
Quadruplex DNA [12] = assay: Stabilization of Tel Q G-quadruplex DNA (unknown origin) assessed as increase in life time of DNA and compound complex at 8.5 uM incubated for 5 mins by fluorescence lifetime study; format: nucleic-acid assay
dsDNA [13] = assay: Binding affinity to double strand DNA (unknown origin) assessed as hyperchromicity at 8.5 uM incubated for 5 mins by UV- vis spectrophotometric analysis; format: nucleic-acid assay
CHO-K1 [14] = assay: Induction of apoptosis in CHO-K1 cells assessed as early apoptic cells at 60 uM after 48 hrs by Annexin V based flow cytometric analysis (reference value: 4.58%); format: cell-based, Cricetulus griseus; settings: chinese hamster, cho-k1, 48 h
PC-3 [15] = assay: Induction of cell cycle arrest in human PC3 cells assessed as accumulation at S phase at 55 uM after 48 hrs by propidium iodide staining based flow cytometry (reference value: 1.8%); format: functional
PC-3 [16] = assay: Induction of apoptosis in human PC-3 cells assessed as viable cells at 55 uM after 48 hrs by Annexin V based flow cytometric analysis (reference value: 89.57%); format: functional; settings: read-out: Activity
Quadruplex DNA [17] = assay: Binding affinity to c-Myc G-quadruplex DNA (unknown origin) assessed as increase in intensity of positive and negative peaks at 10 to 40 uM by circular dichroism spectra; format: nucleic-acid assay; settings: dose 10-40 µM
PC-3 [18] = assay: Induction of cell cycle arrest in human PC3 cells assessed as accumulation at G2/M phase at 55 uM after 48 hrs by propidium iodide staining based flow cytometry (reference value: 1.4%); format: functional
Quadruplex DNA [19] = assay: Binding affinity to Tel Q G-quadruplex DNA (unknown origin) assessed as hyperchromicity at 8.5 uM incubated for 5 mins by UV- vis spectrophotometric analysis; format: nucleic-acid assay
Quadruplex DNA [20] = assay: Binding affinity to Tel Q G-quadruplex DNA (unknown origin) assessed as increase in intensity of positive and negative peaks at 10 to 40 uM by circular dichroism spectra; format: nucleic-acid assay; settings: dose 10-40 µM
CHO-K1 [21] = assay: Induction of apoptosis in CHO-K1 cells assessed as apoptic cells at 60 uM after 48 hrs by Annexin V based flow cytometric analysis (reference value: 6.29%); format: cell-based, Cricetulus griseus; settings: chinese hamster, cho-k1, 48 h
PC-3 [22] = assay: Induction of cell cycle arrest in human PC3 cells assessed as accumulation at G1 phase at 55 uM after 48 hrs by propidium iodide staining based flow cytometry (reference value: 5%); format: functional
PC-3 [23] = assay: Induction of cell cycle arrest in human PC3 cells assessed as accumulation at G1 phase at 50 uM after 48 hrs by propidium iodide staining based flow cytometry (reference value: 5%); format: functional
PC-3 [24] = assay: Induction of cell cycle arrest in human PC3 cells assessed as accumulation at S phase at 50 uM after 48 hrs by propidium iodide staining based flow cytometry (reference value: 1.8%); format: functional
PC-3 [25] = assay: Induction of apoptosis in human PC-3 cells assessed as necrotic cells at 50 uM after 48 hrs by Annexin V based flow cytometric analysis (reference value: 0.79%); format: functional
CHO-K1 [26] = assay: Induction of apoptosis in CHO-K1 cells assessed as apoptic cells at 65 uM after 48 hrs by Annexin V based flow cytometric analysis (reference value: 6.29%); format: cell-based, Cricetulus griseus; settings: chinese hamster, cho-k1, 48 h
B16-F10 = assay: Cytotoxicity against mouse B16-F10 cells assessed as reduction in cell viability measured after 72 hrs by MTT assay; format: functional, cell-based; settings: B16-F10, 72 h
dsDNA [27] = assay: Stabilization of dsDNA (unknown origin) assessed as change in melting temperature at 8.5 uM incubated for 5 mins by UV-visible thermal denaturation study; format: nucleic-acid assay
PC-3 [28] = assay: Induction of apoptosis in human PC-3 cells assessed as apoptotic cells at 55 uM incubated for 48 hrs by AnnexinV based flow cytometric analysis (reference value: 10.43%); format: functional
Quadruplex DNA [29] = assay: Binding affinity to c-Myc G-quadruplex DNA (unknown origin) assessed as dissociation constant incubated for 5 mins by UV- vis spectrophotometric analysis; format: nucleic-acid assay
PC-3 [30] = assay: Induction of apoptosis in human PC-3 cells assessed as apoptotic cells at 50 uM incubated for 48 hrs by AnnexinV based flow cytometric analysis (reference value: 10.43%); format: functional
CHO-K1 [31] = assay: Induction of apoptosis in CHO-K1 cells assessed as late apoptic cells at 60 uM after 48 hrs by Annexin V based flow cytometric analysis (reference value: 1.01%); format: cell-based, Cricetulus griseus; settings: chinese hamster, cho-k1, 48 h
Quadruplex DNA [32] = assay: Stabilization of c-Myc G-quadruplex DNA (unknown origin) assessed as change in melting temperature at 8.5 uM incubated for 5 mins by UV-visible thermal denaturation study; format: nucleic-acid assay
CHO-K1 [33] = assay: Induction of apoptosis in CHO-K1 cells assessed as necrotic cells at 60 uM after 48 hrs by Annexin V based flow cytometric analysis (reference value: 0.70%); format: cell-based, Cricetulus griseus; settings: chinese hamster, cho-k1, 48 h
Quadruplex DNA [34] = assay: Stabilization of Tel Q G-quadruplex DNA (unknown origin) assessed as change in melting temperature at 8.5 uM incubated for 5 mins by UV-visible thermal denaturation study; format: nucleic-acid assay
[35] = Induction of apoptosis in CHO-K1 cells assessed as viable cells at 60 uM after 48 hrs by Annexin V based flow cytometric analysis (reference value: 93.71%); format: cell-based, Cricetulus griseus; settings: chinese hamster, read-out: Activity
CHO-K1 [36] = assay: Induction of apoptosis in CHO-K1 cells assessed as necrotic cells at 65 uM after 48 hrs by Annexin V based flow cytometric analysis (reference value: 0.70%); format: cell-based, Cricetulus griseus; settings: chinese hamster, cho-k1, 48 h

## O=C(Cn1cc(CSc2nc3cc(OC(F)F)ccc3[nH]2)nn1)NC1CCCCC1
CHO-K1 [1]
  Activity: 11.75%
PC-3 [2]
  viability at 50 µM: 87.3%
dsDNA [3]
  Activity: inactive
Quadruplex DNA [4]
  Activity: 27.3%
CHO-K1 [5]
  pIC50: 4.20
PC-3 [6]
  Activity: 2.64%
PC-3 [7]
  Activity: 9.6%
Quadruplex DNA [8]
  Activity: Active
Quadruplex DNA [9]
  pKd: 4.14
dsDNA [10]
  pKd: 3.76
dsDNA [11]
  Activity: 5.6 nm
Quadruplex DNA [12]
  Activity: Active
dsDNA [13]
  Activity: 13.1%
CHO-K1 [14]
  Activity: 10.39%
PC-3 [15]
  Activity: 7.9%
PC-3 [16]
  viability at 55 µM: 81.4%
Quadruplex DNA [17]
  Activity: Active
PC-3 [18]
  Activity: 11.2%
Quadruplex DNA [19]
  Activity: 37.1%
Quadruplex DNA [20]
  Activity: Active
CHO-K1 [21]
  Activity: 13.98%
PC-3 [22]
  Activity: 18.2%
PC-3 [23]
  Activity: 8.9%
PC-3 [24]
  Activity: 5.3%
PC-3 [25]
  Activity: 2.57%
CHO-K1 [26]
  Activity: 15.63%
B16-F10
  pIC50: 4.07
dsDNA [27]
  ΔTm: 0 °C
PC-3 [28]
  Activity: 18.62%
Quadruplex DNA [29]
  pKd: 3.95
PC-3 [30]
  Activity: 12.72%
CHO-K1 [31]
  Activity: 1.62%
Quadruplex DNA [32]
  ΔTm: 5 °C
CHO-K1 [33]
  Activity: 1.97%
Quadruplex DNA [34]
  ΔTm: 14 °C
[35]
  viability at 48 h, 60 µM: 86%
CHO-K1 [36]
  Activity: 1.72%
